Source: the CATMoS acute toxicity set (Mansouri et al. 2021)

Key:
rat acute oral toxicity = conditions: in vivo
Text: […]The data set underlying the modeling effort for this project was initially compiled by NICEATM and U.S. EPA’s CCTE. Briefly, LD50 data were collected from rat acute oral systemic toxicity tests, including limit tests, ranges/confidence intervals, and discrete LD50 values. The full data set included 21,200 LD50 entries for 15,688 substances. […] Data were reviewed to ensure that LD50 values with obvious errors in the extracted data such as unit conversion errors (e.g., comma and decimal separator misplacements) were either fixed or removed. After this review, 16,209 LD50 values remained. Many of the chemicals represented had multiple LD50 entries, requiring that a single representative value per Chemical Abstracts Service Registry Number (CASRN) identifier be defined to facilitate modeling efforts. Based on ATWG feedback and to define the representative LD50 as a protective value while accounting for the distribution across multiple LD50s, the median of the lowest quartile was computed using only discrete LD50 values (omitting limit test data and range and confidence interval data). A detailed summary of the data compilation is available online on the NICEATM webpage dedicated to the collaborative modeling project (NTP 2020).
[…][…] For categorical designations, limit test and range/confidence interval LD50 data were integrated wherever possible. As such, the number of chemicals with end point values/calls varies across the modeling end points (Table 3) based on whether chemicals had representative LD50 values and/or other data. If a chemical had both, the representative value was used to determine categorical calls rather than limit test data. Some data were useable only for certain end points and categories depending on the thresholds. For example, ranges that spanned multiple hazard categories were considered only for the binary (very toxic/nontoxic) end points and omitted from rendering a determination for hazard category assignment.
[…]The final data set comprising 11,992 chemicals was split into training and evaluation sets […], respectively. This process was performed semirandomly by ordering chemicals based on the five end points (categorical and continuous LD50 values) and partitioning every fourth record into the evaluation set accordingly. This approach was taken to ensure an equivalent distribution of the LD50 values and the different hazard categories between the training and the evaluation sets without supervised sampling of the chemicals based on structures (Figure 1A). The sources of the chemical structures were also kept equivalent between the two sets, with chemical structures obtained from DSSTox, being the highest quality, representing over 75% of each set (Figure 1B).

[1] = GHS categories as the set defines them, by LD50: 1 up to 5, 2 up to 50, 3 up to 300, 4 up to 2000, 5 above 2000 mg/kg; conditions: rat; in vivo; po

SMILES	LD50 (rat acute oral toxicity)	GHS category [1]
ClC(Br)Br	370 mg/kg	
CC(C)N(C(=O)COc1nnc(C(F)(F)F)s1)c1ccc(F)cc1	480 mg/kg	
O=[N+]([O-])c1cccc(O)c1	328 mg/kg	
CI	76 mg/kg	
CN(C)CCN(C)C	268 mg/kg	
CCN(CC)c1nc(Nc2ccc(/C=C/c3ccc(Nc4nc(Nc5cc(S(=O)(=O)O)ccc5S(=O)(=O)O)nc(N(CC)CC)n4)cc3S(=O)(=O)O)c(S(=O)(=O)O)c2)nc(Nc2cc(S(=O)(=O)O)ccc2S(=O)(=O)O)n1	11300 mg/kg	
Nc1nc[nH]n1	1100 mg/kg	
CC1CCCCN1CCCOC(=O)c1ccc(Cl)c(Cl)c1 (centres undefined)	800 mg/kg	
C=CCOC(=O)c1ccccc1C(=O)OCC=C	656 mg/kg	
CN=C=O	51.5 mg/kg	
N#Cc1nn(-c2c(Cl)cc(C(F)(F)F)cc2Cl)c(N)c1S(=O)C(F)(F)F (centres undefined)	92 mg/kg	
O=C1OC(=O)c2cccc3cccc1c23	9600 mg/kg	
O=[N+]([O-])c1cc(Cl)ccc1Cl	1000 mg/kg	
O=C1c2ccccc2C(=O)N1SC(Cl)(Cl)Cl	2640 mg/kg	
CC(=O)OC(C)(C)C	4100 mg/kg	
OCC(CO)(CBr)CBr	1880 mg/kg	
Clc1cccc(Cl)c1N=C1NCCN1	67.3 mg/kg	
C=C(C)C(=O)OCCN(C)C	455 mg/kg	
ClC1=C(Cl)C(Cl)(C2(Cl)C(Cl)=C(Cl)C(Cl)=C2Cl)C(Cl)=C1Cl	1200 mg/kg	
Cc1ccc(N)c(C)c1	467 mg/kg	
COc1ccc(OC)c([N+](=O)[O-])c1	2120 mg/kg	
Oc1nc2ccccc2[nH]1	1930 mg/kg	
C=CC(=O)Nc1ccccc1	300 mg/kg	
O=P(O)(O)CCCl	3400 mg/kg	
C=CC(=O)OCC1CO1 (centres undefined)	150 mg/kg	
C[Si](C)(Cl)Cl	595 mg/kg	

SMILES	LD50 (rat acute oral toxicity)	GHS category [1]
CCCCOC(=O)c1ccccc1C(=O)OCCCC	6300 mg/kg	
O=C1CCN(c2ccccc2)N1	200 mg/kg	
O=[N+]([O-])OCC(CO[N+](=O)[O-])O[N+](=O)[O-]	105 mg/kg	
O=C(O)c1cccc(C(=O)O)c1	10400 mg/kg	
CC(C)(C)OOC1(OOC(C)(C)C)CCCCC1	13300 mg/kg	
ClC1(Cl)C2(Cl)C3(Cl)C4(Cl)C(Cl)(Cl)C5(Cl)C3(Cl)C1(Cl)C5(Cl)C24Cl (centres undefined)	235 mg/kg	
O=C(CCCN1CCC(O)(c2ccc(Cl)cc2)CC1)c1ccc(F)cc1	128 mg/kg	
OCCNc1ccccc1	2230 mg/kg	
CC(C)(c1ccc(O)cc1)c1cccc(C(C)(C)c2ccc(O)cc2)c1	5460 mg/kg	
O=C1CCCN1	328 mg/kg	
N#CN	134 mg/kg	
CCC(C)(Oc1ccc(C2(c3ccc(OC(C)(CC)C(=O)O)cc3)CCCCC2)cc1)C(=O)O (centres undefined)		5
NC(=O)Oc1ccccc1C(=O)Oc1ccc(Cl)cc1Cl		5
CCCCCCCCCC(=O)Oc1ccc(C(=O)O)cc1		5
CC(C)(C)c1ccc(OC(=O)C2CCC(CN=C(N)N)CC2)cc1 (centres undefined)		2
CCc1cccc(C)c1Nc1ccc(Nc2c(C)cccc2CC)c2c1C(=O)c1ccccc1C2=O		5
CCOC(=O)CCC(C)=O		5
C/C=C/C(=O)OC		5
CN(C)Cn1c(=O)oc2ccc(Cl)cc21		4
CC(C)OC(=O)N[C@H](C(=O)N[C@H](C)c1nc2ccc(F)cc2s1)C(C)C		5
COc1cc(C)c(/C=C/C(C)=C/C=C/C(C)=C/C(=O)O)c(C)c1C		5
C=CC(=O)O[Si](C(C)C)(C(C)C)C(C)C		5
C=C(C)c1cccc(C(=C)C)c1		5
O=C(O)CCCCCCCCCCC(=O)O		5
CCC(=O)OCC(=O)OC(C)C1CCCC(C)(C)C1 (centres undefined)		5
C[C@@H]1[C@@H](c2ccc(Cl)cc2)SC(=O)N1C(=O)NC1CCCCC1 (single isomer, unassigned)		5

SMILES	LD50 (rat acute oral toxicity)	GHS category [1]
CCCCCCCC(=O)OOC(C)(C)C		5
Oc1c(Br)ccc2c(O)c(Br)ccc12		5
Cc1cccc2ncc(C(=O)NC(C)C)c(=O)n12		3
CCOC(=O)C(=O)Nc1cc(SC)nc(C)n1		4
Cc1cc(C(=O)Nc2cccc(C)c2C)n[nH]1		5
Cc1[nH]nc(C(=O)Nc2cccc(C(F)(F)F)c2)c1Br		5
CCCc1nc2ccnn2c(CCC)c1Cc1ccc(-c2ccccc2-c2nn[nH]n2)cc1		4
CC(=O)O[C@@H]1[C@H](OC(C)=O)[C@@H](C)O[C@H]1n1cc(F)c(N)nc1=O		5
CNc1nc(Nc2ccc(C=Cc3ccc(Nc4nc(NC)nc(N(CCO)CCO)n4)cc3S(=O)(=O)O)c(S(=O)(=O)O)c2)nc(N(CCO)CCO)n1		5
Clc1ccc(Cn2ccnc2-c2ccccc2)cc1		4
CCOC(=O)/C=C(C)/C=C/CC(C)CCCC(C)C (centres undefined)		5
CC12CCC(=O)C=C1CCC1C3CCC4(CCC(=O)O4)C3CCC12C (centres undefined)		5
CCC1(CC)C(=O)N2Cc3ccccc3CN2C1=O		5
COC(=O)c1ccc(C(F)(F)F)nc1S(=O)(=O)NC(=O)Nc1nc(OC)cc(OC)n1		5
CCCCOC(=O)CC(C)C		5
CCC1(CO)COC1		5
C[C@@H]1C[C@@H](C)CC(C)(C)C1		5
CC1(C)S[C@@H]2[C@H](NC(=O)[C@H](N)c3ccccc3)C(=O)N2[C@H]1C(=O)OCOC(=O)[C@@H]1N2C(=O)C[C@H]2S(=O)(=O)C1(C)C		5
CCCC(=O)c1ccc2c(c1)oc(=O)n2C		5
O=C1CCCCCCCCCCOCCCCO1		5
C[C@@H]1[C@H](O)[C@@H](C)C=CC=CC=CC=CC=CC=CC=C[C@H](O[C@@H]2O[C@H](C)[C@@H](O)[C@H](N)[C@@H]2O)C[C@@H]2O[C@](O)(C[C@@H](O)C[C@@H](O)[C@H](O)CC[C@@H](O)C[C@@H](O)CC(=O)O[C@H]1C)C[C@H](O)[C@H]2C(=O)O		5
CCN(CC)CC1CC2(CC(CN(CC)CC)OC2=O)C(=O)O1 (centres undefined)		5
O=C(O)c1ccccc1N=Cc1ccccc1		4
c1ccc(C2=NN(c3ccccc3)C(c3ccccc3)C2)cc1 (centres undefined)		5
CCCCC(CC)C(=O)OC (centres undefined)		5
CCOC(=O)C(C)(C)NC(=O)c1cnc2cccc(C)n2c1=O		3

SMILES	LD50 (rat acute oral toxicity)	GHS category [1]
CCN(Cc1cccc(S(=O)(=O)O)c1)c1ccc(C(=C2C=CC(=[N+](CC)Cc3cccc(S(=O)(=O)O)c3)C=C2)c2ccccc2S(=O)(=O)[O-])cc1		5
CC(=O)C(N=Nc1cc(C(=O)Nc2cc(Cl)ccc2C)ccc1Cl)C(=O)Nc1cc(C)c(NC(=O)C(N=Nc2cc(C(=O)Nc3cc(Cl)ccc3C)ccc2Cl)C(C)=O)cc1C (centres undefined)		5
Cc1ccccc1N1C(=O)c2cc(S(N)(=O)=O)c(Cl)cc2NC1C (centres undefined)		5
Oc1ccc(C(O)CN2CCN(C(c3ccccc3)c3ccccc3)CC2)cc1 (centres undefined)		5
N#Cc1c(Cl)nc(Cl)c(C#N)c1-c1ccccc1		5
Cc1c(C#N)sc(N)c1C#N		4
COc1cc(OC)nc(NC(=O)NS(=O)(=O)Cc2ccccc2C(=O)O)n1		5
Cc1ccc(-c2c(Cl)nc(C#N)n2S(=O)(=O)N(C)C)cc1		5
O=C(CCn1cnc2c(=O)nc[nH]c21)Nc1ccc(C(=O)O)cc1		5
COc1ccc2c(c1)CCN(c1ccccc1)C2c1ccc(OCCN2CCCCC2)cc1 (centres undefined)		4
COC(=O)CCCCCCCCC(=O)OC		5
CCCCCCCCCCCC(=O)OCC(C)(C)C=NCC1(C)CC(N=CC(C)(C)COC(=O)CCCCCCCCCCC)CC(C)(C)C1 (centres undefined)		5
CCN(C(=O)CCCSc1nnnn1C)C1CCCCC1		4
O=[N+]([O-])c1cc2c(Nc3ccc(F)c(Cl)c3)ncnc2cc1S(=O)(=O)c1ccccc1		5
CCCc1c(Cc2ccc(-c3ccccc3-c3nn[nH]n3)cc2)c(OCCOC)nc2ncnn12		4
c1ccc([I+]c2ccccc2)cc1		4
COc1ccccc1OC(=O)c1ccccc1Nc1cccc(C)c1C		5
C=C(C)CCCC(C)CCOC(=O)CC (centres undefined)		5
CC(=O)c1ccc(S(=O)(=O)NC(=O)NC2CCCCC2)cc1		5
CC1(C)S[C@@H]2[C@H](NC(=O)[C@H](N)c3ccc(O)cc3)C(=O)N2[C@H]1C(=O)O		5
C/C=C(\C)C(=O)OC(C)C		5
O=C(C=Cc1ccccc1)OCCCc1ccccc1		5
CCCc1c(Cc2ccc(-c3ccccc3-c3nn[nH]n3)cc2)c(=O)nc2nc(CC)[nH]n12		4
C[C@@]12CC[C@@H]3[C@H](CC=C4C[C@H](OS(=O)(=O)O)CC[C@]43C)[C@H]1CCC2=O (racemic)		5
CCCCCCCC[N+](C)(C)[O-]		5
CC1=C(CCC(=O)O)c2cc3[nH]c(cc4nc(cc5[nH]c(cc1n2)c(C)c5C(C)O)C(C)=C4C(C)O)c(C)c3CCC(=O)O (centres undefined)		5
